Assay results taken from patent publication US20160207950A1, “ORGA[…]-2-CYANO-1-HYDROXYPROPAN-2-YL FOR USE AS ANTHELMINTICS” (UNIVERSITÄT ZÜRICH, priority 2013, published 2016).
Where two headings read alike, the source gives them in different places.

Assays:
[1] = system: human cervical cancer HeLa; assay: fluorometric cell viability assay (Resazurin), toxicity towards HeLa; format: cell-based; conditions: 2 days treatment
Description: Cell Culture: Human cervical carcinoma cells (HeLa) were cultured in DMEM (Gibco) supplemented with 5% fetal calf serum (FCS, Gibco), 100 U/ml penicillin, 100 μg ml streptomycin at 37° C. and 5% CO2. The normal human fetal lung fibroblast MRC-5 cell line was maintained in F-10 medium (Gibco) supplemented with 10% FCS (Gibco), 200 mmol/l L-Glutamine, 100 U/ml penicillin, and 100 μg/ml streptomycin at 37° C. and 5% CO2. Toestablish the anticancer potential of the compounds they were tested in one cell line, namely HeLa by a fluorometric cell viability assay using Resazurin (Promocell GmbH). Compounds showing cytotoxicity were then tested on normal MRC-5 cells. 1 day before treatment, cells were plated in triplicates in 96-well plates at a density of 4×10^3 cells/well in 100 μl for HeLa and 7×10^3 cells/well for MRC-5 cells. Cells were treated with increasing concentrations of the compounds for 2 days. After 2 days, medium and drug were removed and […] fresh medium containing Resazurin (0.2 mg/ml final concentration) were added. After 4 h of incubation at 37° C., the highly red fluorescent dye resorufin's fluorescence was quantified at 590 nm emission with 540 nm excitation wavelength in the SpectraMax M5 microplate Reader. […]

Haemonchus Contortus = assay: Activity in vitro against Haemonchus contortus (egg hatch / larval development)
Description: (§1) Activity in Vitro against Haemonchus contortus & Trichostrongylus colubriformis (Gastrointestinal nematodes).
(§2) Freshly harvested and cleaned nematode eggs are used to seed a suitably formatted microplate containing the test substances to be evaluated for antiparasitic activity. Each compound is tested by serial dilution in order to determine its MED. The test compounds are diluted in nutritive medium allowing the full development of eggs through to 3rd instar larvae. The plates are incubated for 6 days at 28° C. and 60% relative humidity (RH). Egg-hatching and ensuing larval development are recorded to identify a possible nematocidal activity. Efficacy is expressed in percent reduced egg hatch, reduced development of L3, or paralysis & death of larvae of all stages.

[2] = system: Trychostrongylus colubriformis; assay: Activity in vitro against Trichostrongylus colubriformis (egg hatch / larval development)
Description: as §1, §2

C. elegans = C. elegans movement inhibition assay
Description: C. elegans movement inhibition assay: Asynchronous N2 C. elegans worms (Bristol) were maintained on nematode growth medium (NGM) agar, seeded with a lawn on OP50 E coli as a food-source, according to standard protocol (Maintenance of C. elegans; Stiernagle, T., Ed.; WormBook, 2006.). Worms were harvested from NGM plates by washing with M9 buffer (42 mmol/l Na2HPO4, 22 mmol/l KH2PO4, 86 mmol/l NaCl and 1 mmol/l MgSO4), aspiration and collection in a 10 mL tube (Falcon). The average number of worms in 5 μL of this suspension was calculated by transferring 4×5 μL aliquots to a glass slide (Menzel Glaser), and worms were enumerated under a compound microscope (Olympus CH30). To adjust the suspension to contain 1 worm per μL, M9 buffer was either added or removed after pelleting worms at 600× g for 30 sec.
Dilution of test compounds, Zolvix (monepantel) and DMSO for working stock solutions and 96 well plate set-up for liquid screen: A volume of 70 μL of M9 buffer was added to each well in a 96-well plate, using a multichannel pipettor. A volume of 20 μL of worm suspension was added to each well using a single-channel pipettor, with a trimmed pipette tip (increased aperture to minimize damage to worms). […]
Quantitative worm mobility scoring: Immobile worms were counted as a percentage of total worms in each well using an Olympus SZ30 dissecting microscope. […]

Substance | efficacy against dirofilaria immitis (in words) (Dirofilaria immitis) | Activity against Dirofilaria immitis at 10 [mg/mL] (Dirofilaria immitis; 10 mg/mL) [%] | IC50 [1] [µM] | Activity against Haemonchus Contortus at 10 [mg/mL] (Haemonchus Contortus) [%] | Activity against Trychostrongylus colubriformis at 10 [mg/mL] [2] [%] | Number of L3 H. contortus/100 μM (H. contortus) | mobility of the C. elegans worms (in words) (C. elegans; 50 μM) | Mobility in C. elegans at 50 μM (C. elegans; 24 h incubation) [%] | Activity against Haemonchus Contortus at 10 [mg/mL] (Haemonchus Contortus; listed as compound 1) | Activity against Haemonchus Contortus at 10 [mg/mL] (Haemonchus Contortus; listed as drawing 26) [%] | Activity against Trychostrongylus colubriformis at 10 [mg/mL] ([2]; listed as compound 1) | Activity against Trychostrongylus colubriformis at 10 [mg/mL] ([2]; listed as drawing 26) [%]
N-(2-cyano-1-(5-cyano-2-(trifluoromethyl)phenoxy)propan-2-yl)ruthenoceneamide [Compound 1a] | moderate efficacy | 30 | > 100 | 0 | 0 |  |  |  |  |  |  | 
N-(2-cyano-1-(5-cyano-2-(trifluoromethyl)phenoxy)propan-2-yl)ferroceneamide [Compound 1] |  |  | 93.2 |  |  | >100 | significantly reduced | 2 | up to 69% | 69 | up to 69% | 68
